Reference: US20050032810A1, “Novel anthelmintic and insecticidal compositions” (priority 2003, published 2005)

System: H. contortus larvae
Test: H. contortus Larval Development Assay
Type: cell-based
Settings: at 10 μM
Excerpt: Compounds can be evaluated for anthelmintic activity according to the H. contortus Larval Development Assay described in Journal of Helminthology, 1984, 58, 107.

Question: How did the “motility of the larvae” value turn out when `Nc1cc(N2CCC(c3ccccc3)CC2)nc(N)n1` [Compound 2, 6-(4-phenylpiperidin-1-yl)pyrimidine-2,4-diamine] was run?
Answer: Its value is “inhibited motility of the larvae”.
